{"source": "PubChem BioAssay AID1259411", "about": "(Chemical Carcinogenesis Research Information System (CCRIS), 2018)", "tested_on": "rodent carcinogenicity bioassays, tumor incidence", "assay": "CCRIS carcinogenicity studies", "summary_of_the_method": "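NCI-built, expert-reviewed records of carcinogenicity and related test outcomes (mutagenicity, tumor promotion/inhibition) compiled from published and report sources, historical span 1985-2011, not updated.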", "note": "Calls of active or inactive are those of the source. The rule behind the calls is not given here."}
{"compound": "CN(C)NC(=O)CCC(=O)O", "values": [{"measurement": "carcinogen call", "setting": "Species: MOUSE, Strain/Sex: B6C3F1/FEMALE, Route: ORAL, Dose: 0, 5000, 10000 PPM IN DIET FOR 104 WK (STUDY DURATION: 105 WK), Dose: 0, 5000, 10000 PPM IN DIET FOR 104 WK (STUDY DURATION: 105 WK)", "result": "inactive; negative"}, {"measurement": "carcinogen call", "setting": "Species: MOUSE, Strain/Sex: B6C3F1/MALE, Route: ORAL, Dose: 0, 5000, 10000 PPM IN DIET FOR 104 WK (STUDY DURATION: 105 WK), Dose: 0, 5000, 10000 PPM IN DIET FOR 104 WK (STUDY DURATION: 105 WK), Tumor Site: Type of Lesion: LIVER: HEPATOCELLULAR CARCINOMA", "result": "equivocal"}, {"measurement": "carcinogen call", "setting": "Species: Mouse, Strain/Sex: CD-1/Female (50/group), Route: Oral, Dose: 0, 300, 3,000, 6,000, 10,000 ppm in diet for 2 yr, Dose: 0, 300, 3,000, 6,000, 10,000 ppm in diet for 2 yr, Tumor Site: Type of Lesion: Uterus: at 10,000 ppm", "result": "equivocal"}, {"measurement": "carcinogen call", "setting": "Species: Mouse, Strain/Sex: CD-1/Male (50/group), Route: Oral, Dose: 0, 300, 3,000, 6,000, 10,000 ppm in diet for 2 yr, Dose: 0, 300, 3,000, 6,000, 10,000 ppm in diet for 2 yr, Tumor Site: Type of Lesion: Vascular tumor: hemangioma and hemangiosarcoma in liver at 10,000 ppm", "result": "equivocal"}, {"measurement": "carcinogen call", "setting": "Species: Mouse, Strain/Sex: Swiss/Male and Female (100/group in controls; 50/group in treated group), Route: Oral, Dose: 0, 2% in drinking water (3000 mg/kg/day), 0.003% UDMH (40 ppm impurity) for 2 yr, Dose: 0, 2% in drinking water (3000 mg/kg/day), 0.003% UDMH (40 ppm impurity) for 2 yr, Tumor Site: Type of Lesion: Lung: adenomas and adenocarcinomas Vascular tumor: hemangioma and hemangiosarcoma predominantly in liver", "result": "equivocal, incidence of lung tumors may be from udmh."}, {"measurement": "carcinogen call", "setting": "Species: RAT, Strain/Sex: F344/FEMALE, Route: ORAL, Dose: 0, 5000, 10000 PPM IN DIET FOR 104 WK (STUDY DURATION: 105 WK), Dose: 0, 5000, 10000 PPM IN DIET FOR 104 WK (STUDY DURATION: 105 WK), Tumor Site: Type of Lesion: ENDOMETRIUM: ADENOCARCINOMA, UTERUS: LEIOMYOSARCOMA", "result": "active; positive"}, {"measurement": "carcinogen call", "setting": "Species: RAT, Strain/Sex: F344/MALE, Route: ORAL, Dose: 0, 5000, 10000 PPM IN DIET FOR 104 WK (STUDY DURATION: 105 WK), Dose: 0, 5000, 10000 PPM IN DIET FOR 104 WK (STUDY DURATION: 105 WK)", "result": "inactive; negative"}, {"measurement": "carcinogen call", "setting": "Species: Rat, Strain/Sex: Fischer 344/Female (50/group), Route: Oral, Dose: 0, 1, 50, 100 ppm in diet for 2 yr, Dose: 0, 1, 50, 100 ppm in diet for 2 yr, Tumor Site: Type of Lesion: Liver: increase at 50 and 100 ppm (incidence not reported by CADPR) Uterus: Adenocarcinoma (0, 0, 0, 2)", "result": "equivocal, ca dpr described results as providing marginal evidence of treatment"}, {"measurement": "carcinogen call", "setting": "Species: Rat, Strain/Sex: Fischer 344/Female (50/group), Route: Oral, Dose: 0, 100, 500, 5,000, 10,000 ppm in diet for 2 yr, Dose: 0, 100, 500, 5,000, 10,000 ppm in diet for 2 yr, Tumor Site: Type of Lesion: Uterus: Adenocarcinoma (0, 1, 2, 1, 1), Leiomyocarcinoma (0, 0, 0, 2, 1)", "result": "equivocal, ca dpr noted rarity of the tumors but that mtd not achieved"}, {"measurement": "carcinogen call", "setting": "Species: Rat, Strain/Sex: Fischer 344/Male (50/group), Route: Oral, Dose: 0, 100, 500, 5,000, 10,000 ppm in diet for 2 yr, Dose: 0, 100, 500, 5,000, 10,000 ppm in diet for 2 yr", "result": "inactive; negative"}]}
{"compound": "CCCCN(N=O)C(CCC)OC(C)=O", "note": "(stereo not given)", "values": [{"measurement": "carcinogen call", "setting": "Species: RAT, Strain/Sex: F344/FEMALE, Route: SUBCUTANEOUS, Dose: 38 UMOL/KG IN OLIVE OIL 1/WK FOR 10 WK, Tumor Site: Type of Lesion: INJECTION SITE: MALIGNANT FIBROUS HISTIOCYTOMA", "result": "active; positive"}, {"measurement": "carcinogen call", "setting": "Species: RAT, Strain/Sex: F344/MALE, Route: SUBCUTANEOUS, Dose: 38 UMOL/KG IN OLIVE OIL 1/WK FOR 10 WK, Tumor Site: Type of Lesion: INJECTION SITE: MALIGNANT FIBROUS HISTIOCYTOMA, LUNG: ADENOMA", "result": "active; positive"}]}
{"compound": "CCNC(=O)N(CC)N=O", "values": [{"measurement": "carcinogen call", "setting": "Species: RAT, Strain/Sex: F344/FEMALE, Route: GAVAGE, Dose: 0, 20, 40 UMOL/WK IN CORN OIL/ETHYL ACETATE (2: 1) FOR 30 WK (LOW DOSE) OR 22.5 WK (HIGH DOSE) FOR TOTAL DOSES OF 0, 0.6, Dose: 0, 20, 40 UMOL/WK IN CORN OIL/ETHYL ACETATE (2: 1) FOR 30 WK (LOW DOSE) OR 22.5 WK (HIGH DOSE) FOR TOTAL DOSES OF 0, 0.6, Tumor Site: Type of Lesion: MAMMARY GLAND: TUMOR", "result": "active; positive"}, {"measurement": "carcinogen call", "setting": "Species: RAT, Strain/Sex: F344/FEMALE, Route: INTRAVESICULAR, Dose: 0, 3 MG 2/WK FOR 30 WK (STUDY DURATION: LIFETIME), Tumor Site: Type of Lesion: MAMMARY GLAND: TUMOR, LUNG: TUMOR, ZYMBAL GLAND: TUMOR, Tumor Site: Type of Lesion: MAMMARY GLAND: TUMOR, LUNG: TUMOR, ZYMBAL GLAND: TUMOR", "result": "active; positive"}, {"measurement": "carcinogen call", "setting": "Species: RAT, Strain/Sex: F344/FEMALE, Route: ORAL, Dose: 0, 20, 40 UMOL/WK IN DRINKING WATER FOR 30 WK FOR TOTAL DOSES OF 0, 0.6, 1.2 MMOL (STUDY DURATION: LIFETIME), Dose: 0, 20, 40 UMOL/WK IN DRINKING WATER FOR 30 WK FOR TOTAL DOSES OF 0, 0.6, 1.2 MMOL (STUDY DURATION: LIFETIME), Tumor Site: Type of Lesion: LUNG: TUMOR, MAMMARY GLAND: TUMOR, UTERUS: TUMOR, Tumor Site: Type of Lesion: LUNG: TUMOR, MAMMARY GLAND: TUMOR, UTERUS: TUMOR", "result": "active; positive"}, {"measurement": "carcinogen call", "setting": "Species: RAT, Strain/Sex: F344/MALE, Route: GAVAGE, Dose: 0, 20, 40 UMOL/WK IN CORN OIL/ETHYL ACETATE (2: 1) FOR 30 WK FOR TOTAL DOSES OF 0, 0.6, 1.2 MMOL (STUDY DURATION: LIFETI, Dose: 0, 20, 40 UMOL/WK IN CORN OIL/ETHYL ACETATE (2: 1) FOR 30 WK FOR TOTAL DOSES OF 0, 0.6, 1.2 MMOL (STUDY DURATION: LIFETI, Tumor Site: Type of Lesion: LUNG: TUMOR, TESTIS: MESOTHELIOMA, NERVOUS SYSTEM: TUMOR, ZYMBAL GLAND: TUMOR, COLON: TUMOR, Tumor Site: Type of Lesion: LUNG: TUMOR, TESTIS: MESOTHELIOMA, NERVOUS SYSTEM: TUMOR, ZYMBAL GLAND: TUMOR, COLON: TUMOR", "result": "active; positive"}, {"measurement": "carcinogen call", "setting": "Species: RAT, Strain/Sex: F344/MALE, Route: ORAL, Dose: 0, 20, 40 UMOL/WK IN DRINKING WATER FOR 30 WK FOR TOTAL DOSES OF 0, 0.6, 1.2 MMOL (STUDY DURATION: LIFETIME), Dose: 0, 20, 40 UMOL/WK IN DRINKING WATER FOR 30 WK FOR TOTAL DOSES OF 0, 0.6, 1.2 MMOL (STUDY DURATION: LIFETIME), Tumor Site: Type of Lesion: LUNG: TUMOR, TESTIS: MESOTHELIOMA, COLON: TUMOR, SKIN: TUMOR, Tumor Site: Type of Lesion: LUNG: TUMOR, TESTIS: MESOTHELIOMA, COLON: TUMOR, SKIN: TUMOR", "result": "active; positive"}]}
{"compound": "CC(C)[N+](=O)[O-]", "values": [{"measurement": "carcinogen call", "setting": "Species: RAT, Route: INHALATION, Tumor Site: Type of Lesion: LIVER", "result": "active; positive"}]}
{"compound": "c1ccc2c3c(ccc2c1)-c1cccc2cccc-3c12", "values": [{"measurement": "carcinogen call", "setting": "Species: MOUSE, Route: DERMAL, Tumor Site: Type of Lesion: INTEGUMENTARY SYSTEM (SKIN)", "result": "active; positive"}, {"measurement": "carcinogen call", "setting": "Species: MOUSE, Strain/Sex: CD-1/FEMALE, Route: INTRAPERITONEAL, Dose: 0, 0.11, 0.275, 1.1 UMOL (TOTAL DOSE) ADMINISTERED OVER DAYS 1, 8, AND 15 OF LIFE (STUDY DURATION: 52 WEEKS), Dose: 0, 0.11, 0.275, 1.1 UMOL (TOTAL DOSE) ADMINISTERED OVER DAYS 1, 8, AND 15 OF LIFE (STUDY DURATION: 52 WEEKS), Tumor Site: Type of Lesion: LUNG: ALVEOLAR/BRONCHIOLAR CARCINOMA", "result": "active; positive"}, {"measurement": "carcinogen call", "setting": "Species: MOUSE, Strain/Sex: CD-1/MALE, Route: INTRAPERITONEAL, Dose: 0, 0.11, 0.275, 1.1 UMOL (TOTAL DOSE) ADMINISTERED OVER DAYS 1, 8, AND 15 OF LIFE (STUDY DURATION: 52 WEEKS), Dose: 0, 0.11, 0.275, 1.1 UMOL (TOTAL DOSE) ADMINISTERED OVER DAYS 1, 8, AND 15 OF LIFE (STUDY DURATION: 52 WEEKS), Tumor Site: Type of Lesion: LUNG: ALVEOLAR/BRONCHIOLAR CARCINOMA, LIVER: ADENOMA OR CARCINOMA", "result": "active; positive"}, {"measurement": "carcinogen call", "setting": "Species: RAT, Strain/Sex: OSBORNE-MENDEL/FEMALE, Route: LUNG IMPLANT, Dose: 0, 0.2, 1.0, 5.0 MG IN BEESWAX/TRIOCTANOIN (STUDY DURATION: LIFETIME), Dose: 0, 0.2, 1.0, 5.0 MG IN BEESWAX/TRIOCTANOIN (STUDY DURATION: LIFETIME), Tumor Site: Type of Lesion: LUNG: EPIDERMOID CARCINOMA", "result": "active; positive"}]}
{"compound": "O=[N+]([O-])c1cc2ccc3cc4ccccc4c4ccc(c1)c2c34", "values": [{"measurement": "carcinogen call", "setting": "Species: MOUSE, Strain/Sex: B6C3F1/MALE, Route: INTRAPERITONEAL, Dose: 0, 400 NMOL IN 35 µL DMSO ON DAYS 1 (1/7 TOTAL DOSE), 8 (2/7 TOTAL DOSE), AND 15 (4/7 TOTAL DOSE) AFTER BIRTH (STUDY DUR, Tumor Site: Type of Lesion: LIVER: ADENOMA OR CARCINOMA", "result": "active; positive"}]}
{"compound": "CCOS(=O)(=O)OCC", "values": [{"measurement": "carcinogen call", "setting": "Species: RAT, Route: ORAL, Tumor Site: Type of Lesion: FORESTOMACH", "result": "active; positive"}, {"measurement": "carcinogen call", "setting": "Species: RAT, Route: SUBCUTANEOUS, Tumor Site: Type of Lesion: INJECTION SITE", "result": "active; positive"}]}
